Non-standard residues stand in square brackets, D forms with d. Residues, ends and D or L forms follow the SMILES beside them. Nspe = C[C@H](NCC(=O)O)c1ccccc1; Nphe = O=C(O)CNCc1ccccc1; Nleu = CC(C)CNCC(=O)O; NPrGly = CCCNCC(=O)O; Nlys = NCCCCNCC(=O)O
Columns and labels:
Leishmania mexicana [1] = assay: Antileishmanial activity against axenic amastigote form of Leishmania mexicana MNYC/BZ/62/M379 assessed as parasite viability measured after 1 hr by alamarBlue staining based fluorescence analysis; assay type: functional; settings: MNYC/BZ/62/M379, 1 h, read-out: ED50 (the source's name)
Leishmania mexicana [2] = assay: Antileishmanial activity against Leishmania mexicana MNYC/BZ/62/M379 promastigotes assessed as parasite viability measured after 1 hr by alamarBlue staining based fluorescence analysis; assay type: functional; settings: MNYC/BZ/62/M379, 1 h, read-out: ED50 (the source's name)

Row | Structure (SMILES) | EC50 (Leishmania mexicana [1]) | EC50 (Leishmania mexicana [2])
1 | CCCN(CC(=O)N(CC(N)=O)[C@@H](C)c1ccccc1)C(=O)CN(CCCCN)C(=O)CN(C(=O)CN(CCC)C(=O)CN(CCCCN)C(=O)CN(C(=O)CN(CCC)C(=O)CNCCCCN)[C@@H](C)c1ccccc1)[C@@H](C)c1ccccc1 (H-[Nlys][NPrGly][Nspe][Nlys][NPrGly][Nspe][Nlys][NPrGly][Nspe]-NH2) | > 100 µM | > 100 µM
2 | CCCN(CC(=O)N(CC(N)=O)[C@@H](C)c1ccccc1)C(=O)CN(CCCCN)C(=O)CN(C(=O)CN(CCC)C(=O)CN(CCCCN)C(=O)CN(C(=O)CN(CCC)C(=O)CN(CCCCN)C(=O)CN(C(=O)CN(CCC)C(=O)CNCCCCN)[C@@H](C)c1ccccc1)[C@@H](C)c1ccccc1)[C@@H](C)c1ccccc1 (H-[Nlys][NPrGly][Nspe][Nlys][NPrGly][Nspe][Nlys][NPrGly][Nspe][Nlys][NPrGly][Nspe]-NH2) | > 100 µM | > 100 µM
3 | CC(C)CN(CC(=O)N(CC(N)=O)[C@@H](C)c1ccccc1)C(=O)CN(CCCCN)C(=O)CN(C(=O)CN(CC(C)C)C(=O)CNCCCCN)[C@@H](C)c1ccccc1 (H-[Nlys][Nleu][Nspe][Nlys][Nleu][Nspe]-NH2) | > 100 µM | > 100 µM
4 | CC(C)CN(CC(=O)N(CC(N)=O)[C@@H](C)c1ccccc1)C(=O)CN(CCCCN)C(=O)CN(C(=O)CN(CC(C)C)C(=O)CN(CCCCN)C(=O)CN(C(=O)CN(CC(C)C)C(=O)CNCCCCN)[C@@H](C)c1ccccc1)[C@@H](C)c1ccccc1 (H-[Nlys][Nleu][Nspe][Nlys][Nleu][Nspe][Nlys][Nleu][Nspe]-NH2) | > 100 µM | > 100 µM
5 | CC(C)CN(CC(=O)N(CC(N)=O)[C@@H](C)c1ccccc1)C(=O)CN(CCCCN)C(=O)CN(C(=O)CN(CC(C)C)C(=O)CN(CCCCN)C(=O)CN(C(=O)CN(CC(C)C)C(=O)CN(CCCCN)C(=O)CN(C(=O)CN(CC(C)C)C(=O)CNCCCCN)[C@@H](C)c1ccccc1)[C@@H](C)c1ccccc1)[C@@H](C)c1ccccc1 (H-[Nlys][Nleu][Nspe][Nlys][Nleu][Nspe][Nlys][Nleu][Nspe][Nlys][Nleu][Nspe]-NH2) | > 100 µM | > 100 µM
6 | NCCCCNCC(=O)N(CC(=O)N(CC(=O)N(CCCCN)CC(=O)N(CC(=O)N(CC(N)=O)Cc1ccccc1)Cc1ccccc1)Cc1ccccc1)Cc1ccccc1 (H-[Nlys][Nphe][Nphe][Nlys][Nphe][Nphe]-NH2) | > 100 µM | > 100 µM
7 | NCCCCNCC(=O)N(CC(=O)N(CC(=O)N(CCCCN)CC(=O)N(CC(=O)N(CC(=O)N(CCCCN)CC(=O)N(CC(=O)N(CC(=O)N(CCCCN)CC(=O)N(CC(=O)N(CC(N)=O)Cc1ccccc1)Cc1ccccc1)Cc1ccccc1)Cc1ccccc1)Cc1ccccc1)Cc1ccccc1)Cc1ccccc1)Cc1ccccc1 (H-[Nlys][Nphe][Nphe][Nlys][Nphe][Nphe][Nlys][Nphe][Nphe][Nlys][Nphe][Nphe]-NH2) | > 100 µM | 15 µM
8 | C[C@@H](c1ccccc1)N(CC(N)=O)C(=O)CN(C(=O)CN(CCCCN)C(=O)CN(C(=O)CN(C(=O)CNCCCCN)[C@@H](C)c1ccccc1)[C@@H](C)c1ccccc1)[C@@H](C)c1ccccc1 (H-[Nlys][Nspe][Nspe][Nlys][Nspe][Nspe]-NH2) | > 100 µM | > 100 µM
9 | C[C@@H](c1ccccc1)N(CC(N)=O)C(=O)CN(C(=O)CN(CCCCN)C(=O)CN(C(=O)CN(C(=O)CN(CCCCN)C(=O)CN(C(=O)CN(C(=O)CN(CCCCN)C(=O)CN(C(=O)CN(C(=O)CNCCCCN)[C@@H](C)c1ccccc1)[C@@H](C)c1ccccc1)[C@@H](C)c1ccccc1)[C@@H](C)c1ccccc1)[C@@H](C)c1ccccc1)[C@@H](C)c1ccccc1)[C@@H](C)c1ccccc1 (H-[Nlys][Nspe][Nspe][Nlys][Nspe][Nspe][Nlys][Nspe][Nspe][Nlys][Nspe][Nspe]-NH2) | > 100 µM | 8 µM
10 | CC(c1ccccc1)N(CC(=O)N(CCCCN)CC(=O)N(CC(=O)N(CC(=O)N(CCCCN)CC(=O)N(CC(=O)N(CC(N)=O)[C@@H](C)c1ccccc1)Cc1ccc(F)cc1)C(C)c1ccccc1)Cc1ccc(F)cc1)C(=O)CN(Cc1ccc(F)cc1)C(=O)CNCCCCN (single isomer, unassigned) | > 100 µM | 13 µM
11 | CC(C)CCN(CC(=O)N(CC(=O)N(CCCCN)CC(=O)N(CCC(C)C)CC(=O)N(CC(=O)N(CCCCN)CC(=O)N(CCC(C)C)CC(=O)N(CC(=O)N(CCCCN)CC(=O)N(CCC(C)C)CC(=O)N(CC(N)=O)[C@@H](C)c1ccccc1)C(C)c1ccccc1)C(C)c1ccccc1)C(C)c1ccccc1)C(=O)CNCCCCN (single isomer, unassigned) | > 100 µM | 12 µM
12 | CC(C)CCN(CC(=O)N(CC(N)=O)C(C)c1ccccc1)C(=O)CN(CCCCN)C(=O)CN(C(=O)CN(CCC(C)C)C(=O)CN(CCCCN)C(=O)CN(C(=O)CN(CCC(C)C)C(=O)CNCCCCN)[C@@H](C)c1ccccc1)[C@@H](C)c1ccccc1 (single isomer, unassigned) | > 100 µM | 52 µM
13 | CCCCCN(CC(=O)N(CC(=O)N(CC(=O)N(CCCCN)CC(=O)N(CC(=O)N(CC(N)=O)[C@@H](C)c1ccccc1)[C@@H](C)c1ccccc1)C(C)c1ccccc1)[C@@H](C)c1ccccc1)C(=O)CN(C(=O)CN(C(=O)CN(CCCCN)C(=O)CN(C(=O)CN(C(=O)CNCCCCN)[C@@H](C)c1ccccc1)C(C)c1ccccc1)[C@@H](C)c1ccccc1)C(C)c1ccccc1 (single isomer, unassigned) | 15 µM | 10 µM
14 | CC(c1ccccc1)N(CC(=O)N(CCCCN)CC(=O)N(CC(=O)N(CC(=O)N(CCCCN)CC(=O)N(CC(=O)N(CC(=O)N(CCCCN)CC(=O)N(CC(=O)N(CC(N)=O)[C@@H](C)c1ccccc1)Cc1ccc(F)cc1)C(C)c1ccccc1)Cc1ccc(F)cc1)C(C)c1ccccc1)Cc1ccc(F)cc1)C(=O)CN(Cc1ccc(F)cc1)C(=O)CNCCCCN (single isomer, unassigned) | 27 µM | 8 µM
15 | CCCCCNCC(=O)N(CC(=O)N(CC(=O)N(CCCCN)CC(=O)N(CC(=O)N(CC(=O)N(CCCCC)CC(=O)N(CC(=O)N(CC(=O)N(CCCCN)CC(=O)N(CC(=O)N(CC(N)=O)[C@@H](C)c1ccccc1)[C@@H](C)c1ccccc1)C(C)c1ccccc1)[C@@H](C)c1ccccc1)C(C)c1ccccc1)[C@@H](C)c1ccccc1)C(C)c1ccccc1)[C@@H](C)c1ccccc1 (single isomer, unassigned) | 17 µM | 10 µM
16 | CC(c1ccccc1)N(CC(=O)N(CCN)CC(=O)N(CC(=O)N(CC(=O)N(CCN)CC(=O)N(CC(=O)N(CC(N)=O)[C@@H](C)c1ccccc1)[C@@H](C)c1ccccc1)C(C)c1ccccc1)[C@@H](C)c1ccccc1)C(=O)CN(C(=O)CNCCN)C(C)c1ccccc1 (single isomer, unassigned) | > 100 µM | 10 µM
17 | CC(c1ccccc1)N(CC(=O)N(CCCCN)CC(=O)N(CC(=O)N(CC(=O)N(CCCCN)CC(=O)N(CC(=O)N(CC(N)=O)[C@@H](C)c1ccccc1)[C@@H](C)c1ccccc1)Cc1ccc(F)cc1)Cc1ccc(F)cc1)C(=O)CN(C(=O)CNCCCCN)[C@@H](C)c1ccccc1 (single isomer, unassigned) | > 100 µM | 13 µM
18 | CCCCCNCC(=O)N(CC(=O)N(CC(=O)N(CCCCN)CC(=O)N(CC(=O)N(CC(=O)N(CCCCN)CC(=O)N(CC(=O)N(CC(=O)N(CCCCN)CC(=O)N(CC(=O)N(CC(N)=O)[C@@H](C)c1ccccc1)[C@@H](C)c1ccccc1)C(C)c1ccccc1)[C@@H](C)c1ccccc1)[C@@H](C)c1ccccc1)[C@@H](C)c1ccccc1)C(C)c1ccccc1)[C@@H](C)c1ccccc1 (single isomer, unassigned) | 21 µM | 8 µM
